Laboratory results: article PMC5218480 (PLoS ONE, 2017)

System: MV-4-11 cells
Assay: Gene expression microarray analysis (Affymetrix PrimeView) and GSEA
Assay type: cell-based, human
Design: RFU PODN (11730768_x_at) / Fold change /veh PODN (11730768_x_at) / RFU LINC00158 (11744669_a_at) / Fold change /veh LINC00158 (11744669_a_at) / RFU DUSP10 (11751237_a_at) / Fold change /veh DUSP10 (11751237_a_at) / RFU ID3 (11757404_x_at) / Fold change /veh ID3 (11757404_x_at) / RFU PLEKHG5 (11737974_s_at) / Fold change /veh PLEKHG5 (11737974_s_at) / RFU LRRC4B (11730491_at) / Fold change /veh LRRC4B (11730491_at) / RFU GIMAP4 (11747438_a_at) / Fold change /veh GIMAP4 (11747438_a_at) / RFU KRT8 (11758183_x_at) / Fold change /veh KRT8 (11758183_x_at) / RFU CNN1 (11734310_a_at) / Fold change /veh CNN1 (11734310_a_at) / RFU VPS37D (11726825_at) / Fold change /veh VPS37D (11726825_at) / RFU C10orf10 (11716522_x_at) / Fold change /veh C10orf10 (11716522_x_at) / RFU KIR2DL2 /// KIR2DL4 /// KIR2DL5A /// KIR2DL5B /// KIR2DS1 /// KIR2DS2 /// KIR2DS3 /// KIR2DS4 /// KIR3DL3 /// KIR3DL3 /// KIR3DS1 (11738374_at) / Fold change /veh KIR2DL2 /// KIR2DL4 /// KIR2DL5A /// KIR2DL5B /// KIR2DS1 /// KIR2DS2 /// KIR2DS3 /// KIR2DS4 /// KIR3DL3 /// KIR3DL3 /// KIR3DS1 (11738374_at) / RFU C1QL1 (11718748_at) / Fold change /veh C1QL1 (11718748_at) / RFU TMPRSS4 (11747572_a_at) / Fold change /veh TMPRSS4 (11747572_a_at) / RFU HAMP (11756126_x_at) / Fold change /veh HAMP (11756126_x_at) / RFU RNFT2 (11725882_a_at) / Fold change /veh RNFT2 (11725882_a_at) / RFU NR4A2 (11747474_a_at) / Fold change /veh NR4A2 (11747474_a_at) / RFU ABCC12 (11746883_a_at) / Fold change /veh ABCC12 (11746883_a_at) / RFU TMEM136 (11760407_x_at) / Fold change /veh TMEM136 (11760407_x_at) / RFU CLDN22 /// WWC2 (11732394_at) / Fold change /veh CLDN22 /// WWC2 (11732394_at) / RFU HLA-DPB1 (11760878_x_at) / Fold change /veh HLA-DPB1 (11760878_x_at) / RFU SPINT1 (11716480_a_at) / Fold change /veh SPINT1 (11716480_a_at) / RFU GAP43 (11754022_s_at) / Fold change /veh GAP43 (11754022_s_at) / RFU A4GNT (11735810_at) / Fold change /veh A4GNT (11735810_at) / RFU PRB3 (11715151_x_at) / Fold change /veh PRB3 (11715151_x_at) / RFU TUBB4B (11761932_at) / Fold change /veh TUBB4B (11761932_at) / RFU CAPN14 (11732068_a_at) / Fold change /veh CAPN14 (11732068_a_at) / RFU TMCC2 (11721928_a_at) / Fold change /veh TMCC2 (11721928_a_at) / RFU IRGQ (11745062_a_at) / Fold change /veh IRGQ (11745062_a_at) / RFU FAM174B (11720279_a_at) / Fold change /veh FAM174B (11720279_a_at) / RFU TMPRSS4 (11748680_a_at) / Fold change /veh TMPRSS4 (11748680_a_at) / RFU FAM212B (11763350_a_at) / Fold change /veh FAM212B (11763350_a_at) / RFU PLEKHG5 (11743358_a_at) / Fold change /veh PLEKHG5 (11743358_a_at) / RFU ZSCAN30 (11745921_a_at) / Fold change /veh ZSCAN30 (11745921_a_at) / RFU CMKLR1 (11741424_a_at) / Fold change /veh CMKLR1 (11741424_a_at) / RFU LOC101060620 /// MAPK8IP1 (11723275_at) / Fold change /veh LOC101060620 /// MAPK8IP1 (11723275_at) / RFU SPTSSB (11747773_x_at) / Fold change /veh SPTSSB (11747773_x_at) / RFU PRSS12 (11739890_at) / Fold change /veh PRSS12 (11739890_at) / RFU BIN1 (11741810_x_at) / Fold change /veh BIN1 (11741810_x_at) / RFU WNT11 (11732464_a_at) / Fold change /veh WNT11 (11732464_a_at) / RFU C10orf10 (11716521_a_at) / Fold change /veh C10orf10 (11716521_a_at) / RFU C5orf56 (11738089_at) / Fold change /veh C5orf56 (11738089_at) / RFU CYB561 (11721691_x_at) / Fold change /veh CYB561 (11721691_x_at) / RFU ANKRD19P (11752326_a_at) / Fold change /veh ANKRD19P (11752326_a_at) / RFU OR2T12 /// OR2T33 /// OR2T8 (11738714_s_at) / Fold change /veh OR2T12 /// OR2T33 /// OR2T8 (11738714_s_at) / RFU VCAN (11748164_a_at) / Fold change /veh VCAN (11748164_a_at) / RFU JSRP1 (11732532_at) / Fold change /veh JSRP1 (11732532_at) / RFU KRTAP10-11 (11738290_x_at) / Fold change /veh KRTAP10-11 (11738290_x_at) / RFU MYO3A (11730013_a_at) / Fold change /veh MYO3A (11730013_a_at) / RFU EBF3 (11725865_a_at) / Fold change /veh EBF3 (11725865_a_at) / RFU CAMK2N1 (11719241_x_at) / Fold change /veh CAMK2N1 (11719241_x_at) / RFU C5orf56 (11738088_a_at) / Fold change /veh C5orf56 (11738088_a_at) / RFU OLFML3 (11715873_a_at) / Fold change /veh OLFML3 (11715873_a_at) / RFU LOC100653217 /// NTM (11731650_a_at) / Fold change /veh LOC100653217 /// NTM (11731650_a_at) / RFU MAPK11 (11762145_a_at) / Fold change /veh MAPK11 (11762145_a_at) / RFU FIZ1 (11724087_x_at) / Fold change /veh FIZ1 (11724087_x_at) / RFU OASL (11726364_x_at) / Fold change /veh OASL (11726364_x_at) / RFU SOX15 (11748057_x_at) / Fold change /veh SOX15 (11748057_x_at) / RFU CD79A (11719716_a_at) / Fold change /veh CD79A (11719716_a_at) / RFU HIST1H1D (11736915_at) / Fold change /veh HIST1H1D (11736915_at) / RFU CASKIN2 (11723855_a_at) / Fold change /veh CASKIN2 (11723855_a_at) / RFU LOC730098 (11760151_x_at) / Fold change /veh LOC730098 (11760151_x_at) / RFU OR4N2 (11742367_at) / Fold change /veh OR4N2 (11742367_at) / RFU PRRT2 (11749266_a_at) / Fold change /veh PRRT2 (11749266_a_at) / RFU SNX32 (11753110_a_at) / Fold change /veh SNX32 (11753110_a_at) / RFU CDHR5 (11726645_a_at) / Fold change /veh CDHR5 (11726645_a_at) / RFU RCAN1 (11760418_a_at) / Fold change /veh RCAN1 (11760418_a_at) / RFU FAM167A (11723789_a_at) / Fold change /veh FAM167A (11723789_a_at) / RFU FAM26E (11764081_at) / Fold change /veh FAM26E (11764081_at) / RFU ISYNA1 (11749810_s_at) / Fold change /veh ISYNA1 (11749810_s_at) / RFU ACY1 (11761880_at) / Fold change /veh ACY1 (11761880_at) / RFU 11764098_at / Fold change /veh 11764098_at / RFU SAMD14 (11745864_x_at) / Fold change /veh SAMD14 (11745864_x_at) / RFU NPB (11741838_a_at) / Fold change /veh NPB (11741838_a_at) / RFU TMPRSS6 (11731388_a_at) / Fold change /veh TMPRSS6 (11731388_a_at) / RFU KRTAP10-2 (11738614_at) / Fold change /veh KRTAP10-2 (11738614_at) / RFU ARHGAP8 /// PRR5-ARHGAP8 (11727945_x_at) / Fold change /veh ARHGAP8 /// PRR5-ARHGAP8 (11727945_x_at) / RFU KRTAP5-7 /// NADSYN1 (11734609_at) / Fold change /veh KRTAP5-7 /// NADSYN1 (11734609_at) / RFU RASL12 (11751679_a_at) / Fold change /veh RASL12 (11751679_a_at) / RFU CDKN2B (11736163_a_at) / Fold change /veh CDKN2B (11736163_a_at) / RFU PRF1 (11729649_at) / Fold change /veh PRF1 (11729649_at) / RFU, ZNF638 /// ZNF638-IT1 / Fold change vs veh, ZNF638 /// ZNF638-IT1 / RFU, PANK3 / Fold change vs veh, PANK3 / RFU, SH3YL1 / Fold change vs veh, SH3YL1 / RFU, ZEB2 / Fold change vs veh, ZEB2 / RFU, NRIP1 / Fold change vs veh, NRIP1 / RFU, PTTG1IP / Fold change vs veh, PTTG1IP / RFU, CAPN2 / Fold change vs veh, CAPN2 / RFU, MED14 / Fold change vs veh, MED14 / RFU, SNORA58 / Fold change vs veh, SNORA58 / RFU, C1orf63 / Fold change vs veh, C1orf63 / RFU, LRRFIP1 / Fold change vs veh, LRRFIP1 / RFU, NDUFAF7 / Fold change vs veh, NDUFAF7 / RFU, SLC12A2 / Fold change vs veh, SLC12A2 / RFU, IBTK / Fold change vs veh, IBTK / RFU, ESF1 / Fold change vs veh, ESF1 / Fold change vs veh, TMEM50B / RFU, TAOK1 / Fold change vs veh, TAOK1 / RFU, ACBD3 / Fold change vs veh, ACBD3 / RFU, TMA16 / Fold change vs veh, TMA16 / RFU, RWDD3 / Fold change vs veh, RWDD3 / RFU, BCAT1 / Fold change vs veh, BCAT1 / RFU, EDEM3 / Fold change vs veh, EDEM3 / RFU, TMEM33 / Fold change vs veh, TMEM33 / RFU, WDR75 / Fold change vs veh, WDR75 / RFU, AHCTF1 / Fold change vs veh, AHCTF1 / RFU, TFRC / Fold change vs veh, TFRC / RFU, ZDHHC17 / Fold change vs veh, ZDHHC17 / RFU, NOM1 / Fold change vs veh, NOM1 / RFU, ARL8B / Fold change vs veh, ARL8B / RFU, ZBTB11 / Fold change vs veh, ZBTB11 / RFU, TAMM41 / Fold change vs veh, TAMM41 / RFU, KIAA1704 /// LOC100996395 / Fold change vs veh, KIAA1704 /// LOC100996395 / RFU, ING1 / Fold change vs veh, ING1 / RFU, TRMT61B / Fold change vs veh, TRMT61B / RFU, FUBP3 / Fold change vs veh, FUBP3 / RFU, TP53 / Fold change vs veh, TP53 / RFU, TNKS2 / Fold change vs veh, TNKS2 / RFU, ZFP14 / Fold change vs veh, ZFP14 / RFU, ACTR2 / Fold change vs veh, ACTR2 / RFU, PPP3R1 / Fold change vs veh, PPP3R1 / RFU, PIK3R1 / Fold change vs veh, PIK3R1 / RFU, HNRNPA1 / Fold change vs veh, HNRNPA1 / RFU, RNF170 / Fold change vs veh, RNF170 / RFU, ZNF28 / Fold change vs veh, ZNF28 / RFU, RNGTT / Fold change vs veh, RNGTT / RFU, OGT / Fold change vs veh, OGT / RFU, BRD1 / Fold change vs veh, BRD1 / RFU, MARS / Fold change vs veh, MARS / RFU, ZNF655 / Fold change vs veh, ZNF655 / RFU, FAHD1 / Fold change vs veh, FAHD1 / RFU, BDP1 / Fold change vs veh, BDP1 / RFU, LRRCC1 / Fold change vs veh, LRRCC1 / RFU, ARID1A / Fold change vs veh, ARID1A / RFU, ZNF146 / Fold change vs veh, ZNF146 / RFU, ZNF330 / Fold change vs veh, ZNF330 / RFU, GPN3 / Fold change vs veh, GPN3 / RFU, C9orf123 / Fold change vs veh, C9orf123 / RFU, N4BP2L2 / Fold change vs veh, N4BP2L2 / RFU, ARFIP1 / Fold change vs veh, ARFIP1 / RFU, FAM179B / Fold change vs veh, FAM179B / RFU, BCL10 / Fold change vs veh, BCL10 / RFU, UHRF1BP1L / Fold change vs veh, UHRF1BP1L / RFU, BET1 / Fold change vs veh, BET1 / RFU, CNOT2 / Fold change vs veh, CNOT2 / RFU, ZNF268 / Fold change vs veh, ZNF268 / Fold change vs veh, ZNF507 / RFU, DGCR2 / Fold change vs veh, DGCR2 / RFU, WDSUB1 / Fold change vs veh, WDSUB1 / Fold change vs veh, HSP90B1 /// MIR3652 / RFU, ADSS / Fold change vs veh, ADSS / RFU, GK / Fold change vs veh, GK / RFU, ZNF148 / Fold change vs veh, ZNF148 / RFU, TAF9 / Fold change vs veh, TAF9 / RFU, SLC1A5 / Fold change vs veh, SLC1A5 / RFU, SLMO2 / Fold change vs veh, SLMO2 / RFU, ABCC4 / Fold change vs veh, ABCC4 / RFU, LOC101060439 /// RAP1B / Fold change vs veh, LOC101060439 /// RAP1B / RFU, RFX7 / Fold change vs veh, RFX7 / RFU, GTPBP10 / Fold change vs veh, GTPBP10 / RFU, CNEP1R1 / Fold change vs veh, CNEP1R1 / RFU, BIVM-ERCC5 /// ERCC5 / Fold change vs veh, BIVM-ERCC5 /// ERCC5 / RFU, ILF3 / Fold change vs veh, ILF3 / RFU 11762660_at / Fold change /veh 11762660_at / RFU VCAN (11757783_s_at) / Fold change /veh VCAN (11757783_s_at) / RFU DDX43 (11728927_at) / Fold change /veh DDX43 (11728927_at) / RFU KRT8 (11758188_x_at) / Fold change /veh KRT8 (11758188_x_at) / RFU NKD1 (11759106_at) / Fold change /veh NKD1 (11759106_at) / RFU SRD5A1 (11742802_a_at) / Fold change /veh SRD5A1 (11742802_a_at) / RFU TPSAB1 /// TPSB2 (11721975_s_at) / Fold change /veh TPSAB1 /// TPSB2 (11721975_s_at) / RFU GSTM3 (11746129_a_at) / Fold change /veh GSTM3 (11746129_a_at) / RFU IL23R (11737362_x_at) / Fold change /veh IL23R (11737362_x_at) / RFU TMEM51 (11727254_a_at) / Fold change /veh TMEM51 (11727254_a_at) / RFU PIWIL2 (11732686_x_at) / Fold change /veh PIWIL2 (11732686_x_at) / RFU ORM1 (11744905_x_at) / Fold change /veh ORM1 (11744905_x_at) / RFU CCDC152 (11743942_at) / Fold change /veh CCDC152 (11743942_at) / RFU ECM1 (11717891_a_at) / Fold change /veh ECM1 (11717891_a_at) / RFU IL23R (11748794_a_at) / Fold change /veh IL23R (11748794_a_at) / RFU TNFAIP8L3 (11732012_x_at) / Fold change /veh TNFAIP8L3 (11732012_x_at) / RFU MBOAT4 (11741988_at) / Fold change /veh MBOAT4 (11741988_at) / RFU 11764193_at / Fold change /veh 11764193_at / RFU TMEM53 (11763286_at) / Fold change /veh TMEM53 (11763286_at) / RFU MAGEB2 (11727129_at) / Fold change /veh MAGEB2 (11727129_at) / RFU TMEM200A (11744735_a_at) / Fold change /veh TMEM200A (11744735_a_at) / RFU CCDC152 (11751479_a_at) / Fold change /veh CCDC152 (11751479_a_at) / RFU FAM211A (11726209_a_at) / Fold change /veh FAM211A (11726209_a_at) / RFU RGS16 (11746705_a_at) / Fold change /veh RGS16 (11746705_a_at) / RFU VCAN (11755009_s_at) / Fold change /veh VCAN (11755009_s_at) / RFU RHOB (11743442_s_at) / Fold change /veh RHOB (11743442_s_at) / RFU RGS16 (11720943_a_at) / Fold change /veh RGS16 (11720943_a_at) / RFU RGS16 (11720944_at) / Fold change /veh RGS16 (11720944_at) / RFU, VPS4B / Fold change vs veh, VPS4B / RFU, CREB1 / Fold change vs veh, CREB1 / RFU, DNAJC13 / Fold change vs veh, DNAJC13 / RFU, GNAQ / Fold change vs veh, GNAQ / RFU, CDK5R1 / Fold change vs veh, CDK5R1 / RFU, ZRANB3 / Fold change vs veh, ZRANB3 / RFU, CUL4A / Fold change vs veh, CUL4A / RFU, CCNY / Fold change vs veh, CCNY / RFU, UFL1 / Fold change vs veh, UFL1 / RFU, COG3 / Fold change vs veh, COG3 / RFU, DIAPH2 / Fold change vs veh, DIAPH2 / RFU, SKA2 / Fold change vs veh, SKA2 / RFU, AFF3 / Fold change vs veh, AFF3 / RFU, LMF1 / Fold change vs veh, LMF1 / RFU, IPO11 / Fold change vs veh, IPO11 / RFU, DFFB / Fold change vs veh, DFFB / RFU, FOXP1 / Fold change vs veh, FOXP1 / RFU, CARD8 / Fold change vs veh, CARD8 / RFU, STRN3 / Fold change vs veh, STRN3 / RFU, ADK / Fold change vs veh, ADK / RFU, RASSF2 / Fold change vs veh, RASSF2 / RFU, WIPF1 / Fold change vs veh, WIPF1 / RFU, LARP1B / Fold change vs veh, LARP1B / RFU, RASA1 / Fold change vs veh, RASA1 / RFU, RB1 / Fold change vs veh, RB1 / RFU, PPFIA1 / Fold change vs veh, PPFIA1 / RFU, MAT2A / Fold change vs veh, MAT2A / RFU, CCT5 / Fold change vs veh, CCT5 / RFU, WDR92 / Fold change vs veh, WDR92 / RFU, CUX1 / Fold change vs veh, CUX1 / RFU, TTC7A / Fold change vs veh, TTC7A / RFU, TMEM135 / Fold change vs veh, TMEM135 / RFU, DEPTOR / Fold change vs veh, DEPTOR / RFU, CPM / Fold change vs veh, CPM / RFU, DNAJB6 / Fold change vs veh, DNAJB6 / RFU, CACNA2D3 / Fold change vs veh, CACNA2D3 / RFU, DTX4 / Fold change vs veh, DTX4 / RFU, TFCP2 / Fold change vs veh, TFCP2 / RFU, GMCL1 /// GMCL1P1 / Fold change vs veh, GMCL1 /// GMCL1P1 / RFU, AEBP2 / Fold change vs veh, AEBP2 / RFU, SNHG1 /// SNORD22 /// SNORD25 /// SNORD26 /// SNORD27 /// SNORD28 /// SNORD29 /// SNORD31 / Fold change vs veh, SNHG1 /// SNORD22 /// SNORD25 /// SNORD26 /// SNORD27 /// SNORD28 /// SNORD29 /// SNORD31 / Fold change (Aza/veh), C12orf56 (ProbeSet 11735607_a_at) / Fold change (ACY-1035/veh), C12orf56 (ProbeSet 11735607_a_at) / Fold change (Aza/veh), FGFR1OP (ProbeSet 11751329_s_at) / Fold change (ACY-1035/veh), FGFR1OP (ProbeSet 11751329_s_at) / Fold change (Aza/veh), VPS36 (ProbeSet 11739960_a_at) / Fold change (ACY-1035/veh), VPS36 (ProbeSet 11739960_a_at) / RFU SYPL1 (11715823_x_at) / Fold change /veh SYPL1 (11715823_x_at) / RFU IGFBP7 (11715501_s_at) / Fold change /veh IGFBP7 (11715501_s_at) / RFU REEP3 (11722064_at) / Fold change /veh REEP3 (11722064_at) / RFU IGLL1 (11728026_x_at) / Fold change /veh IGLL1 (11728026_x_at): dose or concentration left out as unconfirmed
Conditions: MV-4-11 cells, 48 hours

Nc1ccc(-c2cccs2)cc1NC(=O)c1ccc2c(c1)cc(C1CC1)n2CCN1CCOCC1 [ACY-1035]
Fold change /veh FIZ1 (11724087_x_at): 1.06
